In PubChem BioAssay AID212 (DTP/NCI, 2004):
“And” between values parts separate entries of the source, which are not always exact repeats. Identical values can stand only once. Results filed as inconclusive are left out.

Test system: BDF1 mice, colon carcinoma 38 sc, T/C %
Assay: NCI In Vivo Anticancer Drug Screen. Data for tumor model Colon Carcinoma 38 (subcutaneous) in B6D2F1 (BDF1) mice
Details: endpoint: median tumor weight (est.), higher = larger tumour
Outline: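 T/C readout: treated group (T) measurement over vehicle control group (C) measurement. Endpoint is survival or tumor size in mice bearing a transplanted tumor.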

[1] = dose: 50.0 mg/kg/injection, schedule: Q07DX002 (ip), vehicle: saline with Tween-80
[2] = dose: 200.0 mg/kg/injection, schedule: Q07DX002 (ip), vehicle: saline with Tween-80
[3] = dose: 6.25 mg/kg/injection, schedule: Q07DX002 (ip), vehicle: saline with Tween-80
[4] = dose: 12.5 mg/kg/injection, schedule: Q07DX002 (ip), vehicle: saline with Tween-80
[5] = dose: 50.0 mg/kg/injection, schedule: Q07DX002 (ip), vehicle: Klucel (hydroxypropylcellulose) (HPC)
[6] = dose: 200.0 mg/kg/injection, schedule: Q07DX002 (ip), vehicle: Klucel (hydroxypropylcellulose) (HPC)
[7] = dose: 100.0 mg/kg/injection, schedule: Q07DX002 (ip), vehicle: saline with Tween-80

For C[C@@]12C(=O)OC(=O)[C@]1(C)[C@H]1CC[C@@H]2O1, the T/C (dose: 0.12 mg/kg/injection, schedule: Q07DX002 (ip), vehicle: Klucel (hydroxypropylcellulose) (HPC)) was 88 % of control, the T/C (dose: 0.25 mg/kg/injection, schedule: Q07DX002 (ip), vehicle: Klucel (hydroxypropylcellulose) (HPC)) was 65 % of control and the T/C (dose: 0.5 mg/kg/injection, schedule: Q07DX002 (ip), vehicle: Klucel (hydroxypropylcellulose) (HPC)) was 69 % of control. The T/C (dose: 1.0 mg/kg/injection, schedule: Q07DX002 (ip), vehicle: Klucel (hydroxypropylcellulose) (HPC)) was 76 % of control and the T/C (dose: 2.0 mg/kg/injection, schedule: Q07DX002 (ip), vehicle: Klucel (hydroxypropylcellulose) (HPC)) was 86 % of control.

With O=C1N(CC2CO2)CCN1CC1CO1 (stereo not drawn) the T/C (dose: 25.0 mg/kg/injection, schedule: Q07DX002 (ip), vehicle: saline) was 39 % of control, the T/C (dose: 50.0 mg/kg/injection, schedule: Q07DX002 (ip), vehicle: saline) was 26 % of control and the T/C (dose: 100.0 mg/kg/injection, schedule: Q07DX002 (ip), vehicle: saline) was 41 % of control. The T/C (dose: 200.0 mg/kg/injection, schedule: Q07DX002 (ip), vehicle: saline) was 41 % of control and the T/C (dose: 400.0 mg/kg/injection, schedule: Q07DX002 (ip), vehicle: saline) was 29 % of control.

For CC(C)CC(NC(=O)C(O)C(N)Cc1ccccc1)C(=O)O (stereo not drawn), the T/C (dose: 10.0 micrograms/mouse/injection, schedule: Q10HX006 (ip), vehicle: saline) was 85 % of control, the T/C (dose: 10.0 micrograms/mouse/injection, schedule: Q10HX010 (oral), vehicle: saline) was 74 % of control and the T/C (dose: 100.0 micrograms/mouse/injection, schedule: Q10HX006 (ip), vehicle: saline) was 50 % of control. The T/C (dose: 100.0 micrograms/mouse/injection, schedule: Q10HX010 (oral), vehicle: saline) was 62 % of control.

CC[C@H](CC[C@@H](C)C1CC[C@H]2[C@@H]3CC=C4C[C@@H](OP(=O)(N5CC5)N5CC5)CC[C@]4(C)[C@H]3CC[C@]12C)C(C)C (stereo partly drawn) was tested, and the T/C [1] was 95 % of control, the T/C [2] was 79 % of control and the T/C (dose: 400.0 mg/kg/injection, schedule: Q07DX002 (ip), vehicle: saline with Tween-80) was 92 % of control.

In the case of Cc1nn(CCO)c(C)c1N=[N+]([O-])c1c(C)nn(CCO)c1C, the T/C (dose: 6.25 mg/kg/injection, schedule: Q07DX002 (ip), vehicle: Klucel (hydroxypropylcellulose) (HPC)) is reported as 116 % of control, the T/C [3] is reported as 102 % of control and the T/C (dose: 12.5 mg/kg/injection, schedule: Q07DX002 (ip), vehicle: Klucel (hydroxypropylcellulose) (HPC)) is reported as 86 % of control. For the same compound, the T/C [4] was 98 % of control, the T/C (dose: 25.0 mg/kg/injection, schedule: Q07DX002 (ip), vehicle: Klucel (hydroxypropylcellulose) (HPC)) was 108 % of control and 91 % of control and the T/C [5] was 100 % of control and 104 % of control. The T/C [1] was 86 % of control, the T/C [6] was 24 % of control and the T/C [2] was 79 % of control.

For O=c1[nH]c(=O)n([C@H]2CCCO2)cc1F, the T/C (dose: 40.0 mg/kg/injection, schedule: Q07DX003 (ip), vehicle: Klucel (hydroxypropylcellulose) (HPC)) was 166 % of control, the T/C (dose: 80.0 mg/kg/injection, schedule: Q07DX003 (ip), vehicle: Klucel (hydroxypropylcellulose) (HPC)) was 116 % of control and the T/C (dose: 160.0 mg/kg/injection, schedule: Q07DX003 (ip), vehicle: Klucel (hydroxypropylcellulose) (HPC)) was 57 % of control. For the same compound, the T/C (dose: 320.0 mg/kg/injection, schedule: Q07DX003 (ip), vehicle: Klucel (hydroxypropylcellulose) (HPC)) was 25 % of control.

O=Cc1ccc(C=O)c(Cl)c1 was tested, and the T/C [5] was 107 % of control, the T/C (dose: 100.0 mg/kg/injection, schedule: Q07DX002 (ip), vehicle: Klucel (hydroxypropylcellulose) (HPC)) was 79 % of control and the T/C [6] was 95 % of control. For the same compound, the T/C (dose: 400.0 mg/kg/injection, schedule: Q07DX002 (ip), vehicle: Klucel (hydroxypropylcellulose) (HPC)) was 75 % of control.

In the case of CC(=O)CC(c1ccccc1)c1c(O)c2ccccc2oc1=O (stereo not drawn), the T/C (dose: 0.01 mg/kg/injection, schedule: Q07DX002 (ip), vehicle: Klucel (hydroxypropylcellulose) (HPC)) is reported as 96 % of control, the T/C (dose: 0.02 mg/kg/injection, schedule: Q07DX002 (ip), vehicle: Klucel (hydroxypropylcellulose) (HPC)) is reported as 119 % of control and the T/C (dose: 0.05 mg/kg/injection, schedule: Q07DX002 (ip), vehicle: Klucel (hydroxypropylcellulose) (HPC)) is reported as 100 % of control. For the same compound, the T/C (dose: 0.1 mg/kg/injection, schedule: Q07DX002 (ip), vehicle: Klucel (hydroxypropylcellulose) (HPC)) was 95 % of control, the T/C (dose: 0.2 mg/kg/injection, schedule: Q07DX002 (ip), vehicle: Klucel (hydroxypropylcellulose) (HPC)) was 86 % of control and the T/C (dose: 0.22 mg/kg/injection, schedule: Q07DX002 (ip), vehicle: saline) was 115 % of control. For the same compound, the T/C (dose: 0.45 mg/kg/injection, schedule: Q07DX002 (ip), vehicle: saline with Tween-80) was 91 % of control, the T/C (dose: 0.45 mg/kg/injection, schedule: Q07DX002 (ip), vehicle: saline) was 96 % of control and the T/C (dose: 0.9 mg/kg/injection, schedule: Q07DX002 (ip), vehicle: saline with Tween-80) was 110 % of control. For the same compound, the T/C (dose: 0.9 mg/kg/injection, schedule: Q07DX002 (ip), vehicle: saline) was 88 % of control, the T/C (dose: 1.8 mg/kg/injection, schedule: Q07DX002 (ip), vehicle: saline) was 72 % of control and the T/C (dose: 3.6 mg/kg/injection, schedule: Q07DX002 (ip), vehicle: saline) was 67 % of control.

For OCC1OC(n2cnc3c(Cl)ncnc32)C(O)C1O (stereo not drawn), the T/C (dose: 1600.0 mg/kg/injection, schedule: Q07DX002 (ip), vehicle: saline) was 82 % of control.

With CCCCCCCCCCCCCCCCCC(=O)Nc1ccn(C2OC(CO)C(O)C2O)c(=O)n1 (stereo not drawn) the T/C [4] was 99 % of control, the T/C [1] was 35 % of control and 59 % of control and the T/C [7] was 25 % of control. For the same compound, the T/C [2] was 4 % of control.

In the case of O=NN(CCCl)C(=O)NC1OC(CO)C(O)C(O)C1O (stereo not drawn), the T/C (dose: 2.5 mg/kg/injection, schedule: Q07DX002 (ip), vehicle: saline) is reported as 114 % of control and 96 % of control, the T/C (dose: 8.0 mg/kg/injection, schedule: Q07DX002 (ip), vehicle: saline) is reported as 88 % of control and 92 % of control and the T/C (dose: 16.0 mg/kg/injection, schedule: Q07DX002 (ip), vehicle: saline) is reported as 34 % of control and 58 % of control.

With CS(C)=O the T/C (dose: 1.5 grams/kg/injection, schedule: Q07DX003 (ip), vehicle: saline) was 86 % of control, the T/C (dose: 6.0 grams/kg/injection, schedule: Q07DX003 (ip), vehicle: saline) was 83 % of control and 103 % of control and the T/C (dose: 12.0 grams/kg/injection, schedule: Q07DX003 (ip), vehicle: saline) was 171 % of control.

With CCOC(=O)CC(SP(=S)(OC)OC)C(=O)OCC (stereo not drawn) the T/C (dose: 50.0 mg/kg/injection, schedule: Q07DX002 (ip), vehicle: suspension in saline) was 114 % of control, the T/C (dose: 56.0 mg/kg/injection, schedule: Q07DX002 (ip), vehicle: saline with Tween-80) was 67 % of control and the T/C (dose: 100.0 mg/kg/injection, schedule: Q07DX002 (ip), vehicle: suspension in saline) was 119 % of control. The T/C (dose: 112.0 mg/kg/injection, schedule: Q07DX002 (ip), vehicle: saline with Tween-80) was 102 % of control, the T/C (dose: 200.0 mg/kg/injection, schedule: Q07DX002 (ip), vehicle: suspension in saline) was 49 % of control and the T/C (dose: 225.0 mg/kg/injection, schedule: Q07DX002 (ip), vehicle: saline with Tween-80) was 88 % of control. For the same compound, the T/C (dose: 400.0 mg/kg/injection, schedule: Q07DX002 (ip), vehicle: suspension in saline) was 69 % of control.

For CCCCCCCCCCCCCCC/C([O-])=N/[N+](C)(C)CC(C)O (stereo not drawn), the T/C (dose: 25.0 mg/kg/injection, schedule: Q01DX001 (ip), vehicle: saline) was 164 % of control, the T/C (dose: 200.0 mg/kg/injection, schedule: Q01DX001 (ip), vehicle: saline) was 120 % of control and the T/C (dose: 400.0 mg/kg/injection, schedule: Q01DX001 (ip), vehicle: saline) was 85 % of control.

With CCN(CC)CCOC(=O)Cc1cccc2c(=O)cc(-c3ccc(Cl)cc3)oc12 the T/C [7] was 48 % of control and the T/C [2] was 4 % of control.

In the case of CCCCCc1cc(/C=C2/N=C(c3ccc[nH]3)C=C2OC)[nH]c1C, the T/C (dose: 0.5 mg/kg/injection, schedule: Q07DX002 (ip), vehicle: saline with Tween-80) is reported as 94 % of control, the T/C (dose: 2.0 mg/kg/injection, schedule: Q07DX002 (ip), vehicle: saline with Tween-80) is reported as 163 % of control and the T/C (dose: 4.0 mg/kg/injection, schedule: Q07DX002 (ip), vehicle: saline with Tween-80) is reported as 106 % of control. For the same compound, the T/C (dose: 8.0 mg/kg/injection, schedule: Q07DX002 (ip), vehicle: saline with Tween-80) was 120 % of control and the T/C (dose: 16.0 mg/kg/injection, schedule: Q07DX002 (ip), vehicle: saline with Tween-80) was 108 % of control.

With Cc1cc(N(CC(C)Br)CC(C)Br)ccc1N=Nc1ccccc1C(=O)O (stereo not drawn) the T/C (dose: 1.56 mg/kg/injection, schedule: Q07DX002 (ip), vehicle: saline with Tween-80) was 87 % of control and 96 % of control, the T/C [3] was 85 % of control and the T/C [4] was 95 % of control and 102 % of control. For the same compound, the T/C (dose: 25.0 mg/kg/injection, schedule: Q07DX002 (ip), vehicle: saline with Tween-80) was 73 % of control and 86 % of control.
